Our source for the melting point values is a melting point compilation (Tetko et al.; mined from patent text by program, amines drawn as free bases though some values may be those of a salt).

`CC1=C(C(=O)OC(CN2CCCCC2)c2ccccc2)C(c2cccc([N+](=O)[O-])c2)n2ccnc2N1` (stereo not given) came in with a melting point of 205 to 206 °C. The same measure for `NC(=S)CCc1ccc([N+](=O)[O-])cc1`: 157 to 158 °C; for `Nc1ccc(Sc2ccccc2)cc1Br`: 61 to 63 °C; for `CC(C)(C)c1ccccc1N1CCN(C(=O)c2ncoc2-c2ccccc2)CC1`: 146 to 148 °C. The same measure for `CCOP(=O)(Cc1ccc(NC(=O)CCc2conc2-c2ccc(Cl)cc2)cc1)OCC`: 88 to 90 °C; for `CC(C)(C)c1ccc(C(=O)CCC(=O)O)cc1`: 117 to 120 °C; for `COc1c(NOCc2ccccc2)ccnc1C`: 130 °C. The result for `O=C(NCCn1cncn1)c1ccc(Cl)nc1` reads 186 to 188 °C; that for `O=c1[nH]c2ccc(NCCCc3ccccc3)cc2o1`, 129 to 130 °C; that for `N#Cc1ccc(Cn2cncc2CN2CCC3(CC2)C(=O)Nc2ccccc23)cc1`, 245 to 247 °C. In turn, `COc1cccc(C2=C(C#N)C(c3ccccc3OC)c3c[nH]nc3N2)c1` (stereo not given) registered a melting point of 192 °C. The same measure for `O=C(c1ccc(-c2ccn(C(=O)c3ccc(Cl)cc3Cl)n2)cc1)N1Cc2cccn2Cc2ccccc21`: 180 to 182 °C; for `O=C(CNC(=O)c1ccc([N+](=O)[O-])c(F)c1)OCc1ccccc1`: 118 to 120 °C; for `Cc1cc([N+](=O)[O-])c(C)cc1Cc1cccc(C(F)(F)F)c1`: 75 to 77 °C. The compound `CC(=O)OCc1ccc(CC(C)NCC(O)c2ccccc2)cc1` (stereo not given) showed a melting point of 78 to 82 °C.

On to `CN(C)CCCC(C(=O)O)c1ccccc1-c1ccccc1` (stereo not given), for which the melting point was in the range of 192 to 194 °C. The result for `N#Cc1nn(-c2c(Cl)cc(C(F)(F)F)cc2Cl)c(N)c1-c1cccc(F)c1` reads 164 °C; that for `COC(OC)C(C)n1nnc2ccc(OCc3ccccc3)cc21` (stereo not given), 101 to 103 °C; that for `Cn1nc(-c2ccccc2O)oc1=O`, 160 to 162 °C. The compound `O=C(CC(F)(F)F)CS(=O)(=O)C(c1ccc(Cl)cc1)c1ccc(Cl)cc1` came in with a melting point of 48 to 50 °C. In turn, `CC(C)S(=O)(=O)c1ccc(S(=O)(=O)C(C)C)nc1` yielded a melting point of 181 °C. On to `C[C@H](C(=O)OCc1ccccc1)n1ccn(-c2ccc(OCC(F)(F)C(F)F)cc2)c1=O`, for which the melting point lay within 75 to 76 °C. As to `O=C1CCC2=C1C(c1ccc(Cl)c(F)c1)C1=C(CCS1)N2` (stereo not given), the melting point is more than 260 °C. The result for `CN(C)c1ccc(C(=O)c2ccccc2)cc1NC(=O)c1ccn2c1CSC2c1cccnc1` (stereo not given) reads 186 °C; that for `CCOC(=O)Cc1ccc(CCNC(=O)c2ccc(Cl)cc2)cc1`, 118 to 119 °C. Compound `COC(=O)c1ccc(CN2CCOc3ccc([N+](=O)[O-])cc32)c(OC)c1` showed a melting point of 130 to 132 °C. The result for `O=c1[nH]c2cc3[nH]c(-c4ccnnc4)nc3cc2o1` reads 330 °C; that for `CC(=O)Nc1cc2c(cc1C#N)C(Nc1ccc(C(=O)OC(C)(C)C)cc1)CC2` (stereo not given), 173 to 174 °C; that for `CCCc1nc2c(N)nc3cc(OCCn4cccc4)ccc3c2s1`, 158 to 160 °C. The same measure for `Cn1nc(-c2cnc(N)nc2-c2ccc(Cl)cc2)ccc1=O`: 264 °C; for `O=C(O)CCCCN1C(=O)c2ccc([N+](=O)[O-])cc2C1=O`: 172 °C; for `CCc1cccc2c(/C=C(\C)C(=O)O)cc(OC)c(OC(C)=O)c12`: 148 to 150 °C. The same measure for `OC(CCc1ccc(F)cc1)c1cnc2sc3c(n12)CCCCC3` (stereo not given): 144 to 146 °C; for `CCCN(C(=O)OC(C)(C)C)C(CC(C)C)C(=O)NCC(=O)Oc1c(Cl)c(Cl)c(Cl)c(Cl)c1Cl` (stereo not given): 151 to 153 °C. `COC(=O)C1(C)CCc2cc(C(=O)c3ccccc3)c(OC)cc21` (stereo not given) had a melting point of 135 to 137 °C.

One may read the melting point as the temperature, or range, at which the solid turns liquid.
